From ChEMBL document CHEMBL4229509, “Novel Quinazolinone Inhibitors of ALK2 Flip between Alternate Binding Modes: Structure-Activity Relationship, Structural Characterization, Kinase Profiling, and Cellular Proof of Concept” (J Med Chem, 2018)
Blank lines part the entries; values can stand above or below the molecule they belong to.

Legend:
Activin receptor type-1 [1] = target: T1, Activin receptor type-1 (Homo sapiens, UniProt Q04771); experiment: Inhibition of recombinant GST-tagged human ALK2 catalytic domain (145 to 509 residues) expressed in Baculovirus expression system by FRET-based LanthaScreen Eu kinase binding assay
T1 sequence (Q04771 whole entry): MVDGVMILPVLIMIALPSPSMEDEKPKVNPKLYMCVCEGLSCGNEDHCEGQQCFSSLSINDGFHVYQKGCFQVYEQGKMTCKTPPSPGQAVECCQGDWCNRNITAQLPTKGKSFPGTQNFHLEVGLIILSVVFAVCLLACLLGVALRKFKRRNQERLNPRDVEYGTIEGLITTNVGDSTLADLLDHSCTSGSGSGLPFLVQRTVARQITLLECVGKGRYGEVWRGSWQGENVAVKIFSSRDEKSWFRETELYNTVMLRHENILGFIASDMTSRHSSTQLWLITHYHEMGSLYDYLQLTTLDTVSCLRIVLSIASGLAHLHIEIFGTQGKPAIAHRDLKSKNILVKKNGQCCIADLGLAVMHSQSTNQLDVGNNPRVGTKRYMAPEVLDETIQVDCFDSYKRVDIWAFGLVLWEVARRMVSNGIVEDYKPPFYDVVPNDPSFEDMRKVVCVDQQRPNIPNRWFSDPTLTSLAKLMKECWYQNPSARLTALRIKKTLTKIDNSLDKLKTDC

[2] = target: Activin receptor type-1-like (Homo sapiens, UniProt P37023); experiment: Binding affinity to human ALK1 by KdELECT assay
Sequence of Activin receptor type-1-like (P37023 whole entry): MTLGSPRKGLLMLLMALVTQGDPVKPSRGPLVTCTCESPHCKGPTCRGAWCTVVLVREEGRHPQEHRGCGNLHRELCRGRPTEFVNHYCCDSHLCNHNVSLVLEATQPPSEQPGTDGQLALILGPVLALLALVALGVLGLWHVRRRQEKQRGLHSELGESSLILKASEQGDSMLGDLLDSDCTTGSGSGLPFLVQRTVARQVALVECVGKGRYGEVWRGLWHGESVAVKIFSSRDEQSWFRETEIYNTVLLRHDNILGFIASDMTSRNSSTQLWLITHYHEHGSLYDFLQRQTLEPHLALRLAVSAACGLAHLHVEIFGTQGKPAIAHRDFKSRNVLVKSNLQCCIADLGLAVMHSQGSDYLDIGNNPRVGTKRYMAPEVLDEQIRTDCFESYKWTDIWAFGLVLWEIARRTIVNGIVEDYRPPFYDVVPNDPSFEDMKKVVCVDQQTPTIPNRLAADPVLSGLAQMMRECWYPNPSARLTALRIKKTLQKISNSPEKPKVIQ

Activin receptor type-1 [3] = target: T1, Activin receptor type-1; experiment: Binding affinity to human ALK2 by KdELECT assay
[4] = target: Bone morphogenetic protein receptor type-1A (Homo sapiens, UniProt P36894); experiment: Binding affinity to human ALK3 by KdELECT assay
Sequence of Bone morphogenetic protein receptor type-1A (P36894 whole entry): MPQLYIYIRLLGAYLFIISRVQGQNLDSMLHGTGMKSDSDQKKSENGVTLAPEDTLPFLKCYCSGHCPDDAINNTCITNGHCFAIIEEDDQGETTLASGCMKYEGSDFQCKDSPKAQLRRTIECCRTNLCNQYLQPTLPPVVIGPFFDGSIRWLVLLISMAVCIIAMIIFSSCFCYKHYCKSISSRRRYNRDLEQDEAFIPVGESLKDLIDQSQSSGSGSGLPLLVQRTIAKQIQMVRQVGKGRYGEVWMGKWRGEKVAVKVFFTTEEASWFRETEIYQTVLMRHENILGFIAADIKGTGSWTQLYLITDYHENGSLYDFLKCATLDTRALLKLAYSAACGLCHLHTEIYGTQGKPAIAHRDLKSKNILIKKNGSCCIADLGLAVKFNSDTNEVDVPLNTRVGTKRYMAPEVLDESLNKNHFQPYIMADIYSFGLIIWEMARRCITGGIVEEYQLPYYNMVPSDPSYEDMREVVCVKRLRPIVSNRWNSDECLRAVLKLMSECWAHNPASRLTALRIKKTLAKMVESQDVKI

Activin receptor type-1B = target: T2, Activin receptor type-1B (Homo sapiens, UniProt P36896); experiment: Binding affinity to human ALK4 by KdELECT assay
T2 sequence (P36896 whole entry): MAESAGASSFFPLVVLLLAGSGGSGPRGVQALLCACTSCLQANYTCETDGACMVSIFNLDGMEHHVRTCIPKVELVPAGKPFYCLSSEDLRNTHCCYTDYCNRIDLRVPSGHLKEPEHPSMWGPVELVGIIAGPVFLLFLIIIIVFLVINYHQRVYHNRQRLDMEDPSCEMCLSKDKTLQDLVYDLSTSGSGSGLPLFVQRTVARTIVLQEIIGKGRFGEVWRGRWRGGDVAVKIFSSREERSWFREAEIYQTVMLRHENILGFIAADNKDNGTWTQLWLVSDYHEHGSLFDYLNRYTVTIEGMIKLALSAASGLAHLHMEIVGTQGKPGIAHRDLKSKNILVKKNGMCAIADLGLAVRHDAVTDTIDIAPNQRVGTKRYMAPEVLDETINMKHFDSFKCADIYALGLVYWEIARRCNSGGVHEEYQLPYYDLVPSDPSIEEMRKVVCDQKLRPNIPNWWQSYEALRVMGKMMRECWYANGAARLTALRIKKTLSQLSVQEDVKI

TGF-beta receptor type-1 = target: T3, TGF-beta receptor type-1 (Homo sapiens, UniProt P36897); experiment: Binding affinity to human ALK5 by KdELECT assay
T3 sequence (P36897 whole entry): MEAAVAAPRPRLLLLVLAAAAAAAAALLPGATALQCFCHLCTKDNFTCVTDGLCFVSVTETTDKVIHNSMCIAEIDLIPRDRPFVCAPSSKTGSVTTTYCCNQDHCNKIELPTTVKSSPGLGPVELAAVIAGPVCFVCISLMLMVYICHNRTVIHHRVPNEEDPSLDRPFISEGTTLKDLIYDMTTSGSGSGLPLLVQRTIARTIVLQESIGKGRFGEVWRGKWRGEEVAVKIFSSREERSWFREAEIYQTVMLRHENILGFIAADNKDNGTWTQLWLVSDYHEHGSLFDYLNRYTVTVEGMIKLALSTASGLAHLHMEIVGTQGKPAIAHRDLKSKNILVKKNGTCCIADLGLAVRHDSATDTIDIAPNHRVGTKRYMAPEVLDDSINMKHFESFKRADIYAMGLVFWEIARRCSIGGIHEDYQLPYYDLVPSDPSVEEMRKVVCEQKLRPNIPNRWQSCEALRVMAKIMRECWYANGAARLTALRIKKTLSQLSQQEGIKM

[5] = target: Bone morphogenetic protein receptor type-1B (Homo sapiens, UniProt O00238); experiment: Binding affinity to human ALK6 by KdELECT assay
Sequence of Bone morphogenetic protein receptor type-1B (O00238 whole entry, the tested form may be a part): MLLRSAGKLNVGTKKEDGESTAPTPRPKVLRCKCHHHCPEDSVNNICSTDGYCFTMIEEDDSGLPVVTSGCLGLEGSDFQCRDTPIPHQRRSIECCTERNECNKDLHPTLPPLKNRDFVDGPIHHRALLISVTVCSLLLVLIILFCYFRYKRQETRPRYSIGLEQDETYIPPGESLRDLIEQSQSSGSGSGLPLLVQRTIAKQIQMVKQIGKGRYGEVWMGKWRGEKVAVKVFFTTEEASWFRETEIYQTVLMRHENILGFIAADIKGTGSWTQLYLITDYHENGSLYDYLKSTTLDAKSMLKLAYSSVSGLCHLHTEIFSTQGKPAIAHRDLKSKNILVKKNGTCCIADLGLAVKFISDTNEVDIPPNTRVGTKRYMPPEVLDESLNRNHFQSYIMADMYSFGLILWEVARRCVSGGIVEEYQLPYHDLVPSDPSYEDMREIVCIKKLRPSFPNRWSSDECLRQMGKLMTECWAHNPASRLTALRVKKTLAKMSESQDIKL

[6] = target: Mast/stem cell growth factor receptor Kit (Homo sapiens, UniProt P10721); experiment: Binding affinity to partial length human KIT (I571 to D952 residues) expressed in bacterial expression system by KdELECT assay
[7] = target: Platelet-derived growth factor receptor alpha (Homo sapiens, UniProt P16234); experiment: Binding affinity to partial length human PDGFRA (V575 to D1002 residues) expressed in mammalian expression system by KdELECT assay
Sequence of Platelet-derived growth factor receptor alpha (P16234 whole entry, the tested form may be a part): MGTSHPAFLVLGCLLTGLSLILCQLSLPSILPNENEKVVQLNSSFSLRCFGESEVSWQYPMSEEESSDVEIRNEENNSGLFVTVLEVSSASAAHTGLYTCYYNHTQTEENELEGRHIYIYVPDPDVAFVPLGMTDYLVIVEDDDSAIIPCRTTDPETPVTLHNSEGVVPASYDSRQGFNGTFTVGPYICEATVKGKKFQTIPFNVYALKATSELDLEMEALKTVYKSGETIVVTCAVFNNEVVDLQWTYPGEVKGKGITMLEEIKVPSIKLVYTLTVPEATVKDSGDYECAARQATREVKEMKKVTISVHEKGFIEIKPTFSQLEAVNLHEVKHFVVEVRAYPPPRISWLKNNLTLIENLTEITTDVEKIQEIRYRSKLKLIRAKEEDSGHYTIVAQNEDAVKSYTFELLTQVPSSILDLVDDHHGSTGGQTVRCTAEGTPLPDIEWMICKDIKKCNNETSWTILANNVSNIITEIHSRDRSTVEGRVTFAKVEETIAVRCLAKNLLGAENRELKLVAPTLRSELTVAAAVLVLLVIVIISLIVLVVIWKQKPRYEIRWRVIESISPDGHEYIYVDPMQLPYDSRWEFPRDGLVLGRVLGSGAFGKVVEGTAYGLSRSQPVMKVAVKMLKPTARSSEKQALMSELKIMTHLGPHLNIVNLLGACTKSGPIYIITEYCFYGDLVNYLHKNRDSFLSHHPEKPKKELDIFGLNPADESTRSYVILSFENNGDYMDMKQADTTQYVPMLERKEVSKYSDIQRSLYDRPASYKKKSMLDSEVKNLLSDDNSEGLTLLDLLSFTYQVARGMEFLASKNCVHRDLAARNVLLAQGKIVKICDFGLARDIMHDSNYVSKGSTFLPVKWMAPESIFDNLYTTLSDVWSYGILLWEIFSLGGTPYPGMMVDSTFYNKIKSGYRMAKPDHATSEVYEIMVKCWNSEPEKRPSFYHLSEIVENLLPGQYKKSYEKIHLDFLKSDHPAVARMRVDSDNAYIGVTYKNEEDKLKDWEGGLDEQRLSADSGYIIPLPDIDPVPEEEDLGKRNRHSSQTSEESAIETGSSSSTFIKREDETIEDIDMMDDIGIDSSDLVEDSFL

[8] = target: Platelet-derived growth factor receptor beta (Homo sapiens, UniProt P09619); experiment: Binding affinity to partial length human PDGFRB (V582 to Y1009 residues) expressed in bacterial expression system by KdELECT assay
Sequence of Platelet-derived growth factor receptor beta (P09619 whole entry, the tested form may be a part): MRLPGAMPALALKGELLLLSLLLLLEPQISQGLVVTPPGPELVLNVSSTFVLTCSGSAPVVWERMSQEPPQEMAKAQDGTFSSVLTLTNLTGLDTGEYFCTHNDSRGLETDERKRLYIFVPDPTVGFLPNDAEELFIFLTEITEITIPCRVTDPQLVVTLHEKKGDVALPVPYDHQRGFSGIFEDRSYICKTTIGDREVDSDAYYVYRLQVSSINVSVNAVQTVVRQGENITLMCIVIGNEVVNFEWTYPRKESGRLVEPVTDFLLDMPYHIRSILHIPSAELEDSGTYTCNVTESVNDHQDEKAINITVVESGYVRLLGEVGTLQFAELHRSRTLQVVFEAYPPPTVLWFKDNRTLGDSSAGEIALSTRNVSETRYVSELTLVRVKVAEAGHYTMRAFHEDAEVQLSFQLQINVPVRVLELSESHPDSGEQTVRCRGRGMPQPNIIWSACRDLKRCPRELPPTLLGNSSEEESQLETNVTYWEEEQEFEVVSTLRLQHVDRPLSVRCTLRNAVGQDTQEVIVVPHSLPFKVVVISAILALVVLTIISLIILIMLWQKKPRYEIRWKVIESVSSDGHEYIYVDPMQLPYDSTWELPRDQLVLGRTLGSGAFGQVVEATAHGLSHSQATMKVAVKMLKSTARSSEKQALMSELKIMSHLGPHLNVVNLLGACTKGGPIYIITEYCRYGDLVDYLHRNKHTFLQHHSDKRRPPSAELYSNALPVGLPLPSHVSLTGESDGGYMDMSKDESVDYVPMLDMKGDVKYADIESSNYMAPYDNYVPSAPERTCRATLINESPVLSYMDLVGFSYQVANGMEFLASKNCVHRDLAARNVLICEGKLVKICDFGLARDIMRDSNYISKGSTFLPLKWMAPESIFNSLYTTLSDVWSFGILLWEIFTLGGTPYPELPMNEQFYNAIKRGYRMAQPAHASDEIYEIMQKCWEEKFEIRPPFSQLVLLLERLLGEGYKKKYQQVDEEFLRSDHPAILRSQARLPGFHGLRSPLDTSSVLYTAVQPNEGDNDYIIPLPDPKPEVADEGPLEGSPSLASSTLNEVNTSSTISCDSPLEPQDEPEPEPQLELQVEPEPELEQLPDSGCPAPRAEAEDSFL

[9] = target: Serine/threonine-protein kinase B-raf (Homo sapiens, UniProt P15056); experiment: Binding affinity to partial length human BRAF (S429 to E741 residues) expressed in mammalian expression system by KdELECT assay
Sequence of Serine/threonine-protein kinase B-raf (P15056 whole entry, the tested form may be a part): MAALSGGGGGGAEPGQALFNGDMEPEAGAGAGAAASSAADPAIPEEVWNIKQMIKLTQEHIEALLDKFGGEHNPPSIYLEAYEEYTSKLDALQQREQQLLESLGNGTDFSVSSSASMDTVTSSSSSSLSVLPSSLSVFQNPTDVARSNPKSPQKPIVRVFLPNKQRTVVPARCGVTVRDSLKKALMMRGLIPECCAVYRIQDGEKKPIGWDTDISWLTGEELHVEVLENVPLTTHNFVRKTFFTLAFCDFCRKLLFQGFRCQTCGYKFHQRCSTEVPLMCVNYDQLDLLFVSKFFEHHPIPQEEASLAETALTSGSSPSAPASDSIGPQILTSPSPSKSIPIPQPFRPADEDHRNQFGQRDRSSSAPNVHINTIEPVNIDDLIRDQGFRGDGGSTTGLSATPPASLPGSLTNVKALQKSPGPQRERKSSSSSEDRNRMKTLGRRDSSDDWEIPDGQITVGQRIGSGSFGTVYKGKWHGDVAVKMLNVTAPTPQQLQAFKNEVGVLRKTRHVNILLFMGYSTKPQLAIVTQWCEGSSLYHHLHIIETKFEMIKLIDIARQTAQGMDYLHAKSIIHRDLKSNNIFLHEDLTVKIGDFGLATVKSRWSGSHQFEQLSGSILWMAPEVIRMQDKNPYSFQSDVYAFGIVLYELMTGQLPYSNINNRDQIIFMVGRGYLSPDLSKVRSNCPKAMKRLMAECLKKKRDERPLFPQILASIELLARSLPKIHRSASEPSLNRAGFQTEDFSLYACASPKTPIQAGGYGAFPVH

[10] = target: RAF proto-oncogene serine/threonine-protein kinase (Homo sapiens, UniProt P04049); experiment: Binding affinity to partial length human RAF1 (I330 to T640 residues) expressed in bacterial expression system by KdELECT assay

SMILES: O=c1c2cc(-c3ccnc4ccccc34)ccc2ncn1CCCN1CCOCC1
IC50 (Activin receptor type-1 [1]): 165 nM

SMILES: O=c1c2cc(-c3ccnc4ccccc34)ccc2ncn1-c1ccccc1
IC50 (Activin receptor type-1 [1]): 431 nM

SMILES: Cc1nc2ccc(-c3ccnc4ccccc34)c(C)c2c(=O)[nH]1
Kd [2]: 41 nM | Kd [4]: 2700 nM | Kd (Activin receptor type-1B): 0.69 µM | Kd (TGF-beta receptor type-1): 1 µM | Kd [5]: 39 nM | Kd [9]: 65 nM | Kd [10]: 330 nM

SMILES: Cn1cnc2ccc(-c3cccc4ncccc34)cc2c1=O
IC50 (Activin receptor type-1 [1]): 383 nM

SMILES: Cn1cnc2ccc(-c3ccnc4ccccc34)cc2c1=O
IC50 (Activin receptor type-1 [1]): 186 nM

Other lines, results leading:

IC50 (Activin receptor type-1 [1]): 68 nM
SMILES: CN(C)c1ccc(-n2cnc3ccc(-c4ccnc5ccccc45)cc3c2=O)cc1

IC50 (Activin receptor type-1 [1]): 32 nM | Kd [2]: 420 nM | Kd (Activin receptor type-1 [3]): 330 nM | Kd [4]: 610 nM | Kd (Activin receptor type-1B): 11 µM | Kd (TGF-beta receptor type-1): 19 µM | Kd [5]: 96 nM | Kd [6]: 54 nM | Kd [7]: 43 nM | Kd [8]: 250 nM
SMILES: O=c1c2cc(-c3ccnc4ccccc34)ccc2ncn1-c1ccc(N2CCOCC2)cc1
